Measurements published in ChEMBL document CHEMBL5537132, “Reassessing the putative molecular Target(s) of potent antitubercular 2-(Alkylsulfonyl)acetamides” (2024).
In brackets after ≈: the same amount, converted by molar mass.

System: Mycobacterium tuberculosis
Assay: Antitubercular activity against Mycobacterium tuberculosis H37Rv assessed as inhibition of bacterial growth by BACTEC radiometric assay
Type: functional
Settings: not given

Going from `NC(=O)CS(=O)(=O)CCCCc1ccccc1` to `NC(=O)CS(=O)(=O)CCCCCc1ccccc1`, the MIC falls from greater than 25 µg/mL to 12.5 µg/mL (≈ 46.4 µM).

Going from `CCCCCCCCS(=O)(=O)CC(=O)O` to `NC(=O)CS(=O)(=O)CCCCCCC1C=CC=CC1` (stereo not drawn), the MIC falls from greater than 25 µg/mL to 12.5 µg/mL (≈ 43.8 µM).

System: Mycobacterium tuberculosis
Assay: Antitubercular activity against Mycobacterium tuberculosis
Type: functional
Settings: not given

`CCCCCCS(=O)(=O)CC(N)=O` and `CCCCCCCS(=O)(=O)CC(N)=O` cannot be ordered by MIC: 241 µM (≈ 50 µg/mL) for the first, greater than 113 µM for the second.

Compared with `NC(=O)CS(=O)(=O)CCCCc1ccccc1`, `NC(=O)CS(=O)(=O)CCCCCc1ccccc1` is lower in MIC: greater than 100 µM for the first, 46 µM (≈ 12.4 µg/mL) for the second.

Going from `CCCCCCCCS(=O)(=O)CC(N)=O` to `CCCCCCCCCS(=O)(=O)CC(N)=O`, the MIC falls from 27 µM (≈ 6.35 µg/mL) to 12 µM (≈ 2.99 µg/mL) (2.2-fold).

Going from `CCCCCCCCCCCCCCCCCCS(=O)(=O)CC(N)=O` to `CCCCCCCCCCCCS(=O)(=O)CC(N)=O`, the MIC falls from greater than 133 µM to 43 µM (≈ 12.5 µg/mL).

Compared with `CCCCCCCCCCS(=O)(=O)CC(N)=O`, `NC(=O)CS(=O)(=O)CCCCCCC1C=CC=CC1` (stereo not drawn) is 15-fold higher in MIC: 2.9 µM (≈ 0.764 µg/mL) for the first, 44 µM (≈ 12.6 µg/mL) for the second.

Compared with `CCCCCCCCCCCC(=O)NS(=O)(=O)OC[C@H]1O[C@@H](n2cnc3c(N)ncnc32)[C@H](O)[C@@H]1O`, `CCCCCCCCCOCC(=O)NS(=O)(=O)OC[C@H]1O[C@@H](n2cnc3c(N)ncnc32)[C@H](O)[C@@H]1O` is 2-fold lower in MIC: 0.2 µM (≈ 0.106 µg/mL) for the first, 0.1 µM (≈ 0.0531 µg/mL) for the second.

Going from `CCCCCCCCCCCCOP(=O)(O)OC[C@H]1O[C@@H](n2cnc3c(N)ncnc32)[C@H](O)[C@@H]1O` to `CCCCCCCCCCCCCCCCCCCCOP(=O)(O)OC[C@H]1O[C@@H](n2cnc3c(N)ncnc32)[C@H](O)[C@@H]1O`, the MIC falls from 1.9 µM (≈ 0.98 µg/mL) to 0.9 µM (≈ 0.565 µg/mL) (2.1-fold).

Going from `Nc1ncnc2c1ncn2[C@@H]1O[C@H](COS(=O)(=O)NC(=O)CCCCCCCCCCOc2ccccc2)[C@@H](O)[C@H]1O` to `[N-]=[N+]=NCCCCCCCCCCCC(=O)NS(=O)(=O)OC[C@H]1O[C@@H](n2cnc3c(N)ncnc32)[C@H](O)[C@@H]1O`, the MIC falls from 3.1 µM (≈ 1.88 µg/mL) to 0.2 µM (≈ 0.114 µg/mL) (16-fold).

System: Mycobacterium tuberculosis
Assay: Antitubercular activity against Mycobacterium tuberculosis H37Rv assessed as inhibition of bacterial growth by colorimetric microdilution broth assay
Type: functional
Settings: not given

Work on `NC[C@H]1O[C@@H](n2cnc3c(N)ncnc32)[C@H](O)[C@@H]1O` yielded an MIC greater than 100 µg/mL.

System: Mycobacterium tuberculosis
Assay: Antitubercular activity against Mycobacterium tuberculosis H37Rv assessed as minimum inhibitory concentration incubated for 5 days by resazurin staining based fluorescent plate reader analysis
Type: functional
Settings: 120 h, time 5 day

`CCCCCCCCCCS(=O)(=O)CC(N)=O` and `CCCCCCCCCCCS(=O)(=O)CC(N)=O` are within 1.5-fold of each other in MIC90: 1.32 µg/mL (≈ 5.01 µM) for the first, 1.39 µg/mL (≈ 5.01 µM) for the second.

`CCCCCCCCCCS(=O)(=O)Cc1cn(C[C@H]2O[C@H](OCc3ccccc3)[C@@H](O)[C@@H](O)[C@@H]2O)nn1` and `CCCCCCCCCCS(=O)(=O)CC(=O)NC[C@H]1O[C@H](OCc2ccccc2)[C@@H](O)[C@@H](O)[C@@H]1O` cannot be ordered by MIC90: greater than 50 µg/mL for the first, greater than 50 µg/mL for the second.

`CCCCCCCCCCS(=O)(=O)Cc1cn(CCCCn2c(=O)oc3ccccc32)nn1` and `CCCCCCCCCCS(=O)(=O)Cc1cn(CCCn2cnc3ccccc32)nn1` cannot be ordered by MIC90: greater than 50 µg/mL for the first, greater than 50 µg/mL for the second.

Compared with `CCCCCCCCCCS(=O)(=O)Cc1nc2ccccc2oc1=O`, `NC(=O)CS(=O)(=O)CCCCCCCCCCc1ccccc1` is 2.2-fold higher in MIC90: 5.85 µg/mL (≈ 16 µM) for the first, 13 µg/mL (≈ 38.3 µM) for the second.

Compared with `CCCCCCCCCCS(=O)(=O)Cc1cn(C[C@H]2O[C@@H](n3cnc4c(N)ncnc43)[C@H](O)[C@@H]2O)nn1`, `NC(=O)CS(=O)(=O)CCCCCCCCc1ccccc1` is lower in MIC90: greater than 50 µg/mL for the first, 16 µg/mL (≈ 51.4 µM) for the second.

With `NC(=O)CS(=O)(=O)Cc1ccccc1` the MIC90 was greater than 50 µg/mL.

System: Mycobacterium tuberculosis
Assay: Antitubercular activity against Mycobacterium tuberculosis H37Rv assessed as bacterial growth incubated for 5 days by resazurin staining based fluorescent plate reader analysis relative to control
Type: functional
Settings: time 5 day

`CCCCCCCCCCS(=O)(=O)CC(=O)NC[C@H]1O[C@@H](n2cnc3c(N)ncnc32)[C@H](O)[C@@H]1O` showed an Activity of 100%.
